Measured values from publication PMC5843908, “Detection of PRMT1 inhibitors with stopped flow fluorescence” (Signal Transduction and Targeted Therapy, 2018).

Experiments:
PRMT1 = PRMT1 (Homo sapiens, UniProt Q99873); assay: Stopped flow fluorescence assay of PRMT1 inhibition ([PRMT1] 0.2 µM, [SAM] 3.5 µM, [H4FL] 0.4 µM); format: biochemical;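 further: Stopped-flow traces of fluorescent H4FL peptide quenched on binding PRMT1 and restored on release, recorded 900 s, averaged over repeated drives and fit to a double-exponential model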
Excerpt: To obtain the IC50 of a specific inhibitor, the relative activities of the enzyme in presence of different concentrations of the inhibitor are required (equation 1).[37] […] By adding different concentrations of the inhibitor to the reaction mixture, the relative activity of the enzyme can be obtained by normalizing K to the reaction rate without the inhibitor, and then calculate the IC50 value using equation 1. In our stopped flow fluorescence assay, the reaction rate of Phase I and Phase II can be obtained by approximating and deriving the double-exponential equation (equation 2). In Phase I, during a very short period of time (where t is small), the curve is nearly linear, and the exponential equation can be approximately described as F1 = a · (−k1) · t. Therefore, the derivation of F1 equals –k1∙a, which is the slope of Phase I. Similarly, the curve of Phase II at early stage can be approximately described as F2 = b · (−k2) · t. This derivation of F2 equals –k2∙b, which is the slope of Phase II. The slopes at various inhibitor concentrations, normalized to the slope in the absence of inhibitor, can be used to obtain the corresponding relative enzyme activity from which the potency value (IC50) of the inhibitor can be calculated with equation 1.
In a stopped flow fluorescence assay, the binding of H4FL to PRMT1 (or the PRMT1—cofactor complex) quenches the peptide fluorescence, while release of the peptide restores the fluorescence. […] The widths of the entrance and exit slits of the monochromator were set to 0.5 mm. An equal volume of samples from two syringes was driven into the observation cell for mixing measurements. The H4FL concentration in all experiments was 0.4 μM. […] The fluorescent signal was recorded for 900 seconds, with 10,000 data points in total. Data from four to six drives were collected and averaged for each curve.
After averaging the shot data, the association time courses were fitted to a double-exponential function (equation 2) using GraphPad Prism (CA, USA). […] F is the fluorescence intensity at time t, k1, and k2 are the rate constants for Phase I and Phase II, a is the amplitude of the fluorescence change for k1, and b is the amplitude of the fluorescence change for k2. Simulation curves based on the values of a, b, k1, and k2 at fixed c = 1 were produced using Matlab. The IC50 value of inhibitors is determined by equation 1 using GraphPad Prism (CA, USA).

PRMT6 = test system: PRMT6; set-up: method as in PMID 24564570; details: cited from earlier work
PRMT5 = test system: PRMT5; set-up: method as in PMID 24564570; details: cited from earlier work
CARM1 = test system: CARM1; set-up: method as in PMID 24564570; details: cited from earlier work

PRMT1, sequence (Q99873 29-371): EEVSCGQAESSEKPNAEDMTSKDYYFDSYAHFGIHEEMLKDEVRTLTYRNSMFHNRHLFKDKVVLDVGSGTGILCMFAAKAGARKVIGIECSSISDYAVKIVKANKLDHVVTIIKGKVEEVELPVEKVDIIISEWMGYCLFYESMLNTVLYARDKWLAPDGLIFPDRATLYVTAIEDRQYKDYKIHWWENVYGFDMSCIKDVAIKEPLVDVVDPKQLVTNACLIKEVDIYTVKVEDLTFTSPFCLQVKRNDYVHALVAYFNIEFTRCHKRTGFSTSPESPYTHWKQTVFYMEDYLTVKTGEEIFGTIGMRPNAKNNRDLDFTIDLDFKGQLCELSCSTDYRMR

- mechanism of inhibition suggested by Phase I/Phase II pattern (PRMT1): substrate-competitive inhibitor
- -b·k2 (slope of Phase II) (PRMT1; [DB75] 2.5 µM): 0.0008427 ± 1.61e-06 s⁻¹
- a (amplitude, Phase I) (PRMT1; [DB75] 2.5 µM): 0.1608 ± 3.86E-04
- a·k1 (slope of Phase I) (PRMT1; [DB75] 2.5 µM): 0.00951 ± 4.83e-05 s⁻¹
- b (amplitude, Phase II) (PRMT1; [DB75] 2.5 µM): -0.203 ± 1.66E-04
- k1 (rate constant, Phase I) (PRMT1; [DB75] 2.5 µM): 0.05913 ± 2.65E-04 s^-1
- k2 (rate constant, Phase II) (PRMT1; [DB75] 2.5 µM): 0.004151 ± 7.18E-06 s^-1
- -b·k2 (slope of Phase II) (PRMT1; [DB75] 5 µM): 0.0005995 ± 1.19e-06 s⁻¹
- a (amplitude, Phase I) (PRMT1; [DB75] 5 µM): 0.1114 ± 3.10E-04
- a·k1 (slope of Phase I) (PRMT1; [DB75] 5 µM): 0.00741 ± 4.25e-05 s⁻¹
- b (amplitude, Phase II) (PRMT1; [DB75] 5 µM): -0.14 ± 1.20E-04
- k1 (rate constant, Phase I) (PRMT1; [DB75] 5 µM): 0.06653 ± 3.34E-04 s^-1
- k2 (rate constant, Phase II) (PRMT1; [DB75] 5 µM): 0.004282 ± 7.68E-06 s^-1
- -b·k2 (slope of Phase II) (PRMT1; [DB75] 7.5 µM): 0.0005125 ± 1.42e-06 s⁻¹
- a (amplitude, Phase I) (PRMT1; [DB75] 7.5 µM): 0.1285 ± 3.57E-04
- a·k1 (slope of Phase I) (PRMT1; [DB75] 7.5 µM): 0.00616 ± 3.66e-05 s⁻¹
- b (amplitude, Phase II) (PRMT1; [DB75] 7.5 µM): -0.1789 ± 1.33E-04
- k1 (rate constant, Phase I) (PRMT1; [DB75] 7.5 µM): 0.04791 ± 2.52E-04 s^-1
- k2 (rate constant, Phase II) (PRMT1; [DB75] 7.5 µM): 0.002865 ± 7.66E-06 s^-1
- -b·k2 (slope of Phase II) (PRMT1; [DB75] 10 µM): 0.0003506 ± 2.59e-06 s⁻¹
- a (amplitude, Phase I) (PRMT1; [DB75] 10 µM): 0.06466 ± 3.90E-04
- a·k1 (slope of Phase I) (PRMT1; [DB75] 10 µM): 0.0024 ± 3.23e-05 s⁻¹
- b (amplitude, Phase II) (PRMT1; [DB75] 10 µM): -0.07628 ± 3.14E-04
- k1 (rate constant, Phase I) (PRMT1; [DB75] 10 µM): 0.03706 ± 4.47E-04 s^-1
- k2 (rate constant, Phase II) (PRMT1; [DB75] 10 µM): 0.004596 ± 2.82E-05 s^-1
- -b·k2 (slope of Phase II) (PRMT1; [DB75] 20 µM): 0.00011 ± 4.39e-06 s⁻¹
- a (amplitude, Phase I) (PRMT1; [DB75] 20 µM): 0.02855 ± 5.16E-04
- a·k1 (slope of Phase I) (PRMT1; [DB75] 20 µM): 0.000854 ± 2.84e-05 s⁻¹
- b (amplitude, Phase II) (PRMT1; [DB75] 20 µM): -0.01837 ± 5.38E-04
- k1 (rate constant, Phase I) (PRMT1; [DB75] 20 µM): 0.02992 ± 8.36E-04 s^-1
- k2 (rate constant, Phase II) (PRMT1; [DB75] 20 µM): 0.005985 ± 1.62E-04 s^-1
- -b·k2 (slope of Phase II) (PRMT1; [DB75] 40 µM): 0 s⁻¹
- a (amplitude, Phase I) (PRMT1; [DB75] 40 µM): 0.009937 ± 5.73E-04
- a·k1 (slope of Phase I) (PRMT1; [DB75] 40 µM): 0.00133 ± 0.000128 s⁻¹
- k1 (rate constant, Phase I) (PRMT1; [DB75] 40 µM): 0.1335 ± 1.03E-02 s^-1
- inhibition of Phase II (PRMT1; [DB75] above 10 µM): almost fully inhibited
Structure (SMILES): N=C(N)c1ccc(-c2ccc(-c3ccc(C(=N)N)cc3)o2)cc1 [DB75, furamidine]
- inhibition selectivity for PRMT1 over PRMT6 (PRMT6): 30 fold
- inhibition selectivity for PRMT1 over PRMT5 (PRMT5): more than 15 fold
- inhibition selectivity for PRMT1 over CARM1 (CARM1): 42 fold
